From patent US20090124579A1, “Systems and Methods For Determination of Compounds for Stimulation or Inhibition of Neocalcification” (UNIVERSITY OF SOUTH CAROLINA, priority 2007, published 2009)

What was measured:
matrix vesicles (MV) = assay: Mineralization of matrix vesicles (MV) incubated in synthetic cartilage lymph (SCL), microplate-based biomineralization assay; assay type: biochemical, chicken
Experimental: Zn^2+ causes Anx-5 to bind to acidic phospholipids with even higher affinity than does Ca^2+; however, its effect is very different.
(§1) Mineral formation was measured by incubating MVs (40 μg protein/ml) or complex (60 μg/ml) in synthetic cartilage lymph and assayed by a microplate-based biomineralization modeling system and assay as described herein. MVs were isolated from chicken GP cartilage. The PS.Ca.Pi complex was synthesized from emulsions of PS prepared by sonication in a synthetic intracellular phosphate buffer. Where indicated, pure native placental human annexin 5 (Anx-H5) was added.
(§2) Incubation was in pH 7.5 SCL at 37° C., which follows a characteristic sigmoid pattern in which a definable lag period precedes discernible mineral formation. There then follows a period of rapid mineral formation, a transient period when the rate declines, and an extended period at a progressively slower rate.

ACP = conditions: low levels of Zn^2+
Anx-H5-containing ACP = biological target: T1, Anx-H5-containing ACP (Homo sapiens, UniProt P08758); assay: Mineral formation by Anx-H5-containing ACP in SCL; assay type: biochemical; conditions: low levels (5 μM) of Zn^2+ in SCL
T1 sequence (P08758 2-320 limits assumed): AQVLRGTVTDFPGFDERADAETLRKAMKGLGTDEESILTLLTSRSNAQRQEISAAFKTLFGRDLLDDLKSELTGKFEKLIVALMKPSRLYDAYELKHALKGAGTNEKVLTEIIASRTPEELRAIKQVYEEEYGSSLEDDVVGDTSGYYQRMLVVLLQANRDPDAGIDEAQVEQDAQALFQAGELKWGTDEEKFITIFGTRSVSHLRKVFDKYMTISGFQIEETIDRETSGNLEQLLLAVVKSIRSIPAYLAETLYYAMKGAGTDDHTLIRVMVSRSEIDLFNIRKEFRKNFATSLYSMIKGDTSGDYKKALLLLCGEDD

Anx-A5 Ca^2+ channel = biological target: T2, Anx-A5 Ca^2+ channel (Gallus gallus, UniProt P17153); assay: Ca^2+ channel currents of MV or purified Anx-A5 fused with planar PS.PE (1:1) bilayers; assay type: biochemical, avian; conditions: MV or purified Anx-A5 in planar PS.PE (1:1) bilayers
T2 construct: from tissue; host or cells: avian cartilage
Experimental: To determine if the inhibitory effect of Zn^2+ on MV calcification was due to interaction with Anx-A5, experiments were conducted to investigate the nature of the MV Ca^2+ channel. […] When MVs or purified Anx-A5 were fused with planar PS.PE (1:1) bilayers, a multiconductance Ca^2+ channel was evident, as shown in FIG. 6A. […] The finding that Anx-A5 Ca^2+ channel gating is modulated by Zn^2+ raised the possibility that it may be an important regulator of MV Ca^2+ channel activity in vivo. Thus, it was desirable to determine how Anx-5 helps promote MV mineralization and how Zn^2+ affects the structure of Anx-A5.

PS.Ca.Pi complex = assay: Mineral formation by synthetic PS.Ca.Pi complex seeded into SCL, microplate-based biomineralization assay; assay type: biochemical
Experimental: as §1, §2
Results are illustrated in FIGS. 9A and 9B. […] To document that the effect of avian Anx-A5 could be equally matched by human Anx-H5, the kinetics of mineral formation were examined when both avian MV and the Mg^2+-containing PS.Ca.Pi complex were seeded into SCL in the absence and presence of purified native human placental Anx H5. […]

[1] = test system: PS.PE.Ca.Pi and PS.Ca.Pi complexes; assay: Mineral formation by synthetic PS and PE containing Ca.Pi complexes in SCL; assay type: biochemical
Experimental: FIG. 15 illustrates the effect of Anx-H5 on mineral formation by synthetic PS and PE containing Ca.Pi complexes as determined through in vitro modeling of the system. Mineralization was measured by incubating the various complexes as shown (about 50 μg/ml) in SCL using a microplate-based biomineralization assay system. The complexes were prepared as described above in Example 3. Emulsions of PS or PS.PE (1:1) were generated by sonication to generate approximately 60 nm vesicles. Anx-H5 was added before CaCl2 was titrated to form the complex.

[2] = biological target: T3, Anx-H5.PS.Ca.Pi complexes (Homo sapiens, UniProt P08758); assay: Kinetics of mineralization of Anx-H5 containing nucleators with or without phosphoserine; assay type: biochemical; conditions: 100 μM phosphoserine; both Anx-H5-containing ACP and PS.Ca.Pi complexes
T3 sequence (P08758 2-320 limits assumed): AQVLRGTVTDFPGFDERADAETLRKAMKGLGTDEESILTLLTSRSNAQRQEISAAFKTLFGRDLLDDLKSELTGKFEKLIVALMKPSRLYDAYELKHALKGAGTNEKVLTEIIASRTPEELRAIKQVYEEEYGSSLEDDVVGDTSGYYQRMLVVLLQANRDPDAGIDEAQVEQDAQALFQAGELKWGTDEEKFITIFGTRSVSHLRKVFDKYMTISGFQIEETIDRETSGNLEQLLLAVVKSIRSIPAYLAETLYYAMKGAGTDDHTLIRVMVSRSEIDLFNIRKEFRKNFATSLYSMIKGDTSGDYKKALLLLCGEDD
Excerpt: Phosphoserine was examined as a test compound. Phosphoserine can occupy PS head-group binding sites in Anx-H5, acting as a competitive inhibitor of PS binding. […] Since Anx-H5 trimer formation occurs only on phospholipid bilayers, phosphoserine competes for PS binding sites in Anx-H5, interfering with trimer formation, and thereby inhibiting de novo mineralization.
FIG. 18 illustrates the results of in vitro assays showing the delay of onset of mineralization of Anx-H5 containing nucleators by incorporation of O-phospho-L-serine

[Zn+2] [Zn^2+, zinc]
MV mineralization (matrix vesicles (MV); low levels of Zn^2+ (5 μM) in SCL): completely inhibit
ACP-induced mineral formation (ACP): weak inhibition
mineral formation by Anx-H5-containing ACP (Anx-H5-containing ACP): marked inhibition
Ca^2+ currents (Anx-A5 Ca^2+ channel): blocked

Anx-H5: pure native placental human annexin 5
ability of MV to induce and propagate mineral formation (matrix vesicles (MV); Anx-H5 added to freshly isolated MV): significantly enhanced
mineral formation induced by protein alone (PS.Ca.Pi complex; Anx-H5 by itself added to SCL, without PS): failed to induce any mineral formation
effect on PS.PE.Ca.Pi-induced mineralization ([1]; Anx-H5 incorporated into PS.PE.Ca.Pi complex): overcome this inhibitory effect of PE
effect on mineral formation of incorporation into PS.Ca.Pi complex ([1]; complexes about 50 μg/ml in SCL): obvious stimulatory effect

c1cnc2c(c1)ccc1cccnc12 [1,10-phenanthroline, reference compound]
ability of Zn^2+-inhibited MV to mineralize (matrix vesicles (MV); metal ion chelator added to Zn^2+-inhibited MV): restored the ability to mineralize

N[C@@H](COP(=O)(O)O)C(=O)O [phosphoserine, O-phospho-L-serine]
time needed for onset of mineralization [2]: almost tripling

phosphatidylethanolamine [PE, reference compound]
ability of PS.Ca.Pi to nucleate mineral formation ([1]; equimolar amounts incorporated into PS.Ca.Pi (PS.PE 1:1)): profound inhibition

B1: Anx-A5: avian annexin 5 (avian cartilage) (protein, UniProt P17153 1-321, looked up)
Annexin A5: MAKYTRGTVTAFSPFDARADAEALRKAMKGMGTDEETILKILTSRNNAQRQEIASAFKTLFGRDLVDDLKSELTGKFETLMVSLMRPARIFDAHALKHAIKGAGTNEKVLTEILASRTPAEVQNIKQVYMQEYEANLEDKITGETSGHFQRLLVVLLQANRDPDGRVDEALVEKDAQVLFRAGELKWGTDEETFITILGTRSVSHLRRVFDKYMTISGFQIEETIDRETSGDLEKLLLAVVKCIRSVPAYFAETLYYSMKGAGTDDDTLIRVMVSRSEIDLLDIRHEFRKNFAKSLYQMIQKDTSGDYRKALLLLCGGDDE
activation of PS.Ca.Pi complex (PS.Ca.Pi complex; complex prepared from Mg^2+-containing phosphate buffer): synergistically activates
